# Measured values from ChEMBL document CHEMBL5625247, “Tetrahydro-β-carboline derivatives as potent histone deacetylase 6 inhibitors with broad-spectrum antiproliferative activity” (Eur J Med Chem, 2023).
# Experiments:
# A549 = assay: Antiproliferative activity against human A549 cells assessed as cell growth inhibition incubated for 72 hrs by alamar blue dye based assay; type: functional
# IGROV-1 = assay: Antiproliferative activity against human IGROV-1 cells assessed as cell growth inhibition incubated for 72 hrs by alamar blue dye based assay; type: functional
# MCF7 = assay: Antiproliferative activity against human MCF7 cells assessed as cell growth inhibition incubated for 72 hrs by alamar blue dye based assay; type: functional
# SK-MEL-5 = assay: Antiproliferative activity against human SK-MEL-5 cells assessed as cell growth inhibition incubated for 72 hrs by alamar blue dye based assay; type: functional
# NCI-H522 = assay: Antiproliferative activity against human NCI-H522 cells assessed as cell growth inhibition incubated for 72 hrs by alamar blue dye based assay; type: functional
# HOP-92 = assay: Antiproliferative activity against human HOP-92 cells assessed as cell growth inhibition incubated for 72 hrs by alamar blue dye based assay; type: functional
# K562 = assay: Antiproliferative activity against human K562 cells assessed as cell growth inhibition incubated for 72 hrs by alamar blue dye based assay; type: functional
# HCT-116 = assay: Antiproliferative activity against human HCT-116 cells assessed as cell growth inhibition incubated for 72 hrs by alamar blue dye based assay; type: functional
# MDA-MB-468 = assay: Antiproliferative activity against human MDA-MB-468 cells assessed as cell growth inhibition incubated for 72 hrs by alamar blue dye based assay; type: functional
# HOP-62 = assay: Antiproliferative activity against human HOP-62 cells assessed as cell growth inhibition incubated for 72 hrs by alamar blue dye based assay; type: functional
# LOX IMVI = assay: Antiproliferative activity against human LOX IMVI cells assessed as cell growth inhibition incubated for 72 hrs by alamar blue dye based assay; type: functional
# UACC-257 = assay: Antiproliferative activity against human UACC-257 cells assessed as cell growth inhibition incubated for 72 hrs by alamar blue dye based assay; type: functional
# SF-268 = assay: Antiproliferative activity against human SF-268 cells assessed as cell growth inhibition incubated for 72 hrs by alamar blue dye based assay; type: functional
# NCI-H322M = assay: Antiproliferative activity against human NCI-H322M cells assessed as cell growth inhibition incubated for 72 hrs by alamar blue dye based assay; type: functional
# SN12C = assay: Antiproliferative activity against human SN12C cells assessed as cell growth inhibition incubated for 72 hrs by alamar blue dye based assay; type: functional
# DU-145 = assay: Antiproliferative activity against human DU-145 cells assessed as cell growth inhibition incubated for 72 hrs by alamar blue dye based assay; type: functional
# HL-60(TB) = assay: Antiproliferative activity against human HL-60(TB) cells assessed as cell growth inhibition incubated for 72 hrs by alamar blue dye based assay; type: functional
# M14 = assay: Antiproliferative activity against human M14 cells assessed as cell growth inhibition incubated for 72 hrs by alamar blue dye based assay; type: functional
# HCC 2998 = assay: Antiproliferative activity against human HCC 2998 cells assessed as cell growth inhibition incubated for 72 hrs by alamar blue dye based assay; type: functional
# COLO 205 = assay: Antiproliferative activity against human COLO 205 cells assessed as cell growth inhibition incubated for 72 hrs by alamar blue dye based assay; type: functional
# UACC-62 = assay: Antiproliferative activity against human UACC-62 cells assessed as cell growth inhibition incubated for 72 hrs by alamar blue dye based assay; type: functional
# T47D = assay: Antiproliferative activity against human T47D cells assessed as cell growth inhibition incubated for 72 hrs by alamar blue dye based assay; type: functional
# HCT-15 = assay: Antiproliferative activity against human HCT-15 cells assessed as cell growth inhibition incubated for 72 hrs by alamar blue dye based assay; type: functional
# SF-539 = assay: Antiproliferative activity against human SF-539 cells assessed as cell growth inhibition incubated for 72 hrs by alamar blue dye based assay; type: functional
# OVCAR-8 = assay: Antiproliferative activity against human OVCAR-8 cells assessed as cell growth inhibition incubated for 72 hrs by alamar blue dye based assay; type: functional
# OVCAR-4 = assay: Antiproliferative activity against human OVCAR-4 cells assessed as cell growth inhibition incubated for 72 hrs by alamar blue dye based assay; type: functional
# Hs-578T = assay: Antiproliferative activity against human Hs-578T cells assessed as cell growth inhibition incubated for 72 hrs by alamar blue dye based assay; type: functional
# SK-MEL-28 = assay: Antiproliferative activity against human SK-MEL-28 cells assessed as cell growth inhibition incubated for 72 hrs by alamar blue dye based assay; type: functional
# UO-31 = assay: Antiproliferative activity against human UO-31 cells assessed as cell growth inhibition incubated for 72 hrs by alamar blue dye based assay; type: functional
# RPMI-8226 = assay: cells; type: functional, cell-based; conditions: Homo sapiens; for GI50: RPMI-8226, time 72 hrs
# NCI-H226 = assay: Antiproliferative activity against human NCI-H226 cells assessed as cell growth inhibition incubated for 72 hrs by alamar blue dye based assay; type: functional
# EKVX = assay: Antiproliferative activity against human EKVX cells assessed as cell growth inhibition incubated for 72 hrs by alamar blue dye based assay; type: functional
# NCI/ADR-RES = assay: Antiproliferative activity against human NCI-ADR-RES cells assessed as cell growth inhibition incubated for 72 hrs by alamar blue dye based assay; type: functional
# 786-0 = assay: Antiproliferative activity against human 786-0 cells assessed as cell growth inhibition incubated for 72 hrs by alamar blue dye based assay; type: functional
# CCRF-CEM = assay: Antiproliferative activity against human CCRF-CEM cells assessed as cell growth inhibition incubated for 72 hrs by alamar blue dye based assay; type: functional
# NCI-H460 = assay: Antiproliferative activity against human NCI-H460 cells assessed as cell growth inhibition incubated for 72 hrs by alamar blue dye based assay; type: functional
# MDA-MB-435 = assay: Antiproliferative activity against human MDA-MB-435 cells assessed as cell growth inhibition incubated for 72 hrs by alamar blue dye based assay; type: functional
# SK-MEL-2 = assay: Antiproliferative activity against human SK-MEL-2 cells assessed as cell growth inhibition incubated for 72 hrs by alamar blue dye based assay; type: functional
# OVCAR-5 = assay: Antiproliferative activity against human OVCAR-5 cells assessed as cell growth inhibition incubated for 72 hrs by alamar blue dye based assay; type: functional
# SK-OV-3 = assay: Antiproliferative activity against human SK-OV-3 cells assessed as cell growth inhibition incubated for 72 hrs by alamar blue dye based assay; type: functional
# OVCAR-3 = assay: Antiproliferative activity against human OVCAR-3 cells assessed as cell growth inhibition incubated for 72 hrs by alamar blue dye based assay; type: functional
# MDA-MB-231 = assay: Antiproliferative activity against human MDA-MB-231 cells assessed as cell growth inhibition incubated for 72 hrs by alamar blue dye based assay; type: functional
# RXF 393 = assay: Antiproliferative activity against human RXF 393 cells assessed as cell growth inhibition incubated for 72 hrs by alamar blue dye based assay; type: functional
# NCI-H23 = assay: Antiproliferative activity against human NCI-H23 cells assessed as cell growth inhibition incubated for 72 hrs by alamar blue dye based assay; type: functional
# ACHN = assay: Antiproliferative activity against human ACHN cells assessed as cell growth inhibition incubated for 72 hrs by alamar blue dye based assay; type: functional
# SR = assay: Antiproliferative activity against human SR cells assessed as cell growth inhibition incubated for 72 hrs by alamar blue dye based assay; type: functional
# SW-620 = assay: Antiproliferative activity against human SW620 cells assessed as cell growth inhibition incubated for 72 hrs by alamar blue dye based assay; type: functional
smiles,measurement,setting,value
O=C(NO)c1ccc(CNC(=O)[C@H]2Cc3c([nH]c4ccccc34)[C@H](c3ccc(Cl)cc3)N2)cc1,GI50,A549,3970 nM
same,GI50,IGROV-1,1200 nM
same,GI50,MCF7,874 nM
same,GI50,SK-MEL-5,721 nM
same,GI50,NCI-H522,584 nM
same,GI50,HOP-92,930 nM
same,GI50,K562,720 nM
same,GI50,HCT-116,609 nM
same,GI50,MDA-MB-468,380 nM
same,GI50,HOP-62,1270 nM
same,GI50,LOX IMVI,1090 nM
same,GI50,UACC-257,1230 nM
same,GI50,SF-268,2920 nM
same,GI50,NCI-H322M,1620 nM
same,GI50,SN12C,2410 nM
same,GI50,DU-145,1080 nM
same,GI50,HL-60(TB),706 nM
same,GI50,M14,2200 nM
same,GI50,HCC 2998,605 nM
same,GI50,COLO 205,719 nM
same,GI50,UACC-62,538 nM
same,GI50,T47D,600 nM
same,GI50,HCT-15,4260 nM
same,GI50,SF-539,1140 nM
same,GI50,OVCAR-8,942 nM
same,GI50,OVCAR-4,3730 nM
same,GI50,Hs-578T,1010 nM
same,GI50,SK-MEL-28,878 nM
same,GI50,UO-31,2640 nM
same,IC50,"RPMI-8226; RPMI-8226, 72 h",620 nM
same,GI50,RPMI-8226,564 nM
same,GI50,NCI-H226,2270 nM
same,GI50,EKVX,2650 nM
same,GI50,NCI/ADR-RES,3350 nM
same,GI50,786-0,3710 nM
same,GI50,CCRF-CEM,617 nM
same,GI50,NCI-H460,1020 nM
same,GI50,MDA-MB-435,959 nM
same,GI50,SK-MEL-2,2770 nM
same,GI50,OVCAR-5,456 nM
same,GI50,SK-OV-3,2010 nM
same,GI50,OVCAR-3,1230 nM
same,GI50,MDA-MB-231,887 nM
same,GI50,RXF 393,455 nM
same,GI50,NCI-H23,1330 nM
same,GI50,ACHN,3050 nM
same,GI50,SR,1150 nM
same,GI50,SW-620,687 nM
COc1ccc(CN2[C@@H](C(=O)NCc3ccc(C(=O)NO)cc3)Cc3c([nH]c4ccccc34)[C@@H]2C2CC2)cc1,GI50,A549,3540 nM
same,GI50,IGROV-1,2600 nM
same,GI50,MCF7,2330 nM
same,GI50,SK-MEL-5,2600 nM
same,GI50,NCI-H522,965 nM
same,GI50,HOP-92,2620 nM
same,GI50,K562,1670 nM
same,GI50,HCT-116,2080 nM
same,GI50,MDA-MB-468,1000 nM
same,GI50,HOP-62,3480 nM
same,GI50,LOX IMVI,2370 nM
same,GI50,UACC-257,2390 nM
same,GI50,SF-268,4400 nM
same,GI50,NCI-H322M,4250 nM
same,GI50,SN12C,3860 nM
same,GI50,DU-145,4380 nM
same,GI50,HL-60(TB),2730 nM
same,GI50,M14,4070 nM
same,GI50,HCC 2998,2600 nM
same,GI50,COLO 205,3470 nM
same,GI50,UACC-62,1550 nM
same,GI50,T47D,3820 nM
same,GI50,HCT-15,3750 nM
same,GI50,SF-539,2480 nM
same,GI50,OVCAR-8,2560 nM
same,GI50,OVCAR-4,4740 nM
same,GI50,Hs-578T,1850 nM
same,GI50,SK-MEL-28,1980 nM
same,GI50,UO-31,3000 nM
same,GI50,RPMI-8226,2920 nM
same,GI50,NCI-H226,3410 nM
same,GI50,EKVX,3200 nM
same,GI50,NCI/ADR-RES,4050 nM
same,GI50,786-0,3980 nM
same,GI50,CCRF-CEM,996 nM
same,GI50,NCI-H460,3140 nM
same,GI50,MDA-MB-435,638 nM
same,GI50,SK-MEL-2,4110 nM
same,GI50,OVCAR-5,1870 nM
same,GI50,SK-OV-3,2870 nM
same,GI50,OVCAR-3,3410 nM
same,GI50,MDA-MB-231,2430 nM
same,GI50,RXF 393,797 nM
same,GI50,NCI-H23,2750 nM
same,GI50,ACHN,3520 nM
same,GI50,SR,> 19800 nM
same,GI50,SW-620,2260 nM
